# Reference: ChEMBL document CHEMBL5390237, “Discovery of Selective Histone Deacetylase 1 and 2 Inhibitors: Screening of a Focused Library Constructed by Click Chemistry, Kinetic Binding Analysis, and Biological Evaluation” (J Med Chem, 2023)
# Target: Histone deacetylase 2 (Homo sapiens, UniProt Q92769)
# Assay: Inhibition of full-length recombinant human C-terminal GST tagged HDAC2 expressed in Sf9 insect cells using aminoluciferin peptide substrate at 100 nM preincubated for 3 hrs followed by substrate addition and measured after 30 mins by HDAC-Glo I/II chemiluminescence assay
# Conditions: time 3.5 hrs
# Sequence of Histone deacetylase 2 (Q92769 whole entry): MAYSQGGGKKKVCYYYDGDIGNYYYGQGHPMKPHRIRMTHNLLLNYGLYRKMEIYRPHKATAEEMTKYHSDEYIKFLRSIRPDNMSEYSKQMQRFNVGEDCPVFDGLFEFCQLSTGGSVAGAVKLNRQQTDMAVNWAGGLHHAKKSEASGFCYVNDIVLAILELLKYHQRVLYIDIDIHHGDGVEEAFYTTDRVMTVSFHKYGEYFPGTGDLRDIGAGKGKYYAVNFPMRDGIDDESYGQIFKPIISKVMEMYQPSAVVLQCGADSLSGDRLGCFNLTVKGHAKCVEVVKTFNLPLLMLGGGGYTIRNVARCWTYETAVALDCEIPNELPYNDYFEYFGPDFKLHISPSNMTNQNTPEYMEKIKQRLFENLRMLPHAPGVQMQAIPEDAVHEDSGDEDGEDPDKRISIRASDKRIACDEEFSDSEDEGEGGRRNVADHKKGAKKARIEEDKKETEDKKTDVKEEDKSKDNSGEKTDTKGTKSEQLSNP
row,SMILES,inhibition
1,Nc1ccc(-c2ccsc2)cc1NC(=O)CCc1cn(CCCCC(=O)O)nn1,0%
2,Nc1ccc(-c2cccs2)cc1NC(=O)CCc1cn(-c2cccc3ccccc23)nn1,0%
3,Nc1ccc(-c2cccs2)cc1NC(=O)c1cccc(-c2cn(-c3ccc([N+](=O)[O-])cc3)nn2)c1,5%
4,Nc1ccc(-c2cccs2)cc1NC(=O)CCc1cn(Cc2cccc(-c3ccccc3)c2)nn1,0%
5,Nc1ccc(-c2cccs2)cc1NC(=O)c1cccc(-c2cn(CCc3cccc(C(F)(F)F)c3)nn2)c1,0%
6,Nc1ccc(-c2cccs2)cc1NC(=O)CCc1cn(/C=C/c2ccccc2)nn1,24%
7,Nc1ccc(-c2cccnc2)cc1NC(=O)CCc1cn(CCc2ccccc2[N+](=O)[O-])nn1,1%
8,Nc1ccc(-c2ccccc2)cc1NC(=O)CCc1cn(Cc2cc3ccccc3s2)nn1,0%
9,Nc1ccc(-c2ccccc2)cc1NC(=O)CCc1cn(CC(=O)c2ccccc2)nn1,18%
10,Nc1ccc(-c2cccs2)cc1NC(=O)c1cccc(-c2cn(CCCCCc3ccccc3)nn2)c1,0%
11,Nc1ccc(-c2cccnc2)cc1NC(=O)CCc1cn(CCC2CCCC2)nn1,0%
12,Nc1ccc(-c2cccs2)cc1NC(=O)c1ccc(-c2cn(CC34CC5CC(CC(C5)C3)C4)nn2)cc1,0%
13,Nc1ccc(-c2cccs2)cc1NC(=O)c1cn(CCC2CCCC2)nn1,0%
14,Nc1ccc(-c2cccs2)cc1NC(=O)CCc1cn(CCc2c[nH]c3ccccc23)nn1,18%
15,Nc1ccc(-c2cccs2)cc1NC(=O)c1cccc(-c2cn(CCCCC(=O)O)nn2)c1,48%
16,Cc1ccc(-n2cc(-c3ccc(C(=O)Nc4cc(-c5cccs5)ccc4N)cc3)nn2)cc1C,0%
17,Nc1ccc(-c2ccsc2)cc1NC(=O)CCc1cn(CCc2ccc(C(=O)O)cc2)nn1,31%
18,Nc1ccc(-c2ccccc2)cc1NC(=O)c1cn(CC23CC4CC(CC(C4)C2)C3)nn1,0%
19,Nc1ccc(-c2cccs2)cc1NC(=O)c1cn(CCCCCCC(=O)O)nn1,7%
20,Nc1ccc(-c2cccs2)cc1NC(=O)CCc1cn(CCc2ccccc2)nn1,26%
21,Nc1ccc(-c2cccs2)cc1NC(=O)CCc1cn(CCN2CCOCC2)nn1,1%
22,Nc1ccc(-c2cccs2)cc1NC(=O)c1cccc(-c2cn(Cc3cccc4ccccc34)nn2)c1,14%
23,Nc1ccc(-c2cccs2)cc1NC(=O)CCc1cn(CCCCCCCC(=O)O)nn1,4%
24,Nc1ccc(-c2cccs2)cc1NC(=O)c1cn(CCCCC(=O)O)nn1,3%

row,SMILES,inhibition
1,Nc1ccc(-c2cccs2)cc1NC(=O)c1ccc(-c2cn(CCC34CC5CC(CC(C5)C3)C4)nn2)cc1,5%
2,Nc1ccc(-c2cccs2)cc1NC(=O)c1ccc(-c2cn(CCc3ccsc3)nn2)s1,27%
3,Nc1ccc(-c2cccs2)cc1NC(=O)c1cccc(-c2cn(CCCCCC(=O)O)nn2)c1,41%
4,Nc1ccc(-c2cccnc2)cc1NC(=O)CCc1cn(C[S+]([O-])c2ccccc2)nn1 (stereo not given),0%
5,Nc1ccc(-c2cccs2)cc1NC(=O)CCc1cn(CCc2ccccc2[N+](=O)[O-])nn1,24%
6,Nc1ccc(-c2ccccc2)cc1NC(=O)CCc1cn(-c2ccc(O)cc2)nn1,3%
7,Nc1ccc(-c2cccs2)cc1NC(=O)c1ccc(-c2cn(-c3cccc4ccccc34)nn2)cc1,0%
8,Nc1ccc(-c2ccsc2)cc1NC(=O)CCc1cn(CCCCCc2ccccc2)nn1,5%
9,Nc1ccc(-c2cccs2)cc1NC(=O)c1cccc(-c2cn(CCc3cccc4ccccc34)nn2)c1,0%
10,Nc1ccc(-c2cccs2)cc1NC(=O)CCc1cn(CS(=O)(=O)c2ccccc2)nn1,15%
11,Nc1ccc(-c2cccnc2)cc1NC(=O)CCc1cn(CCc2cccc(Cl)c2)nn1,30%
12,Nc1ccc(-c2cccnc2)cc1NC(=O)CCc1cn(CCc2ccccc2C(F)(F)F)nn1,0%
13,Nc1ccc(-c2cccnc2)cc1NC(=O)CCc1cn(Cc2cc3ccccc3s2)nn1,9%
14,Nc1ccc(-c2cccs2)cc1NC(=O)CCc1cn(CCC2CCCCC2)nn1,4%
15,Nc1ccc(-c2cccs2)cc1NC(=O)CCc1cn(CCN2CCc3ccccc3C2)nn1,14%
16,Nc1ccc(-c2cccs2)cc1NC(=O)c1ccc(-c2cn(CC34CC5CC(CC(C5)C3)C4)nn2)s1,0%
17,Cc1cccc(C)c1NC(=O)Cn1cc(-c2ccc(C(=O)Nc3cc(-c4cccs4)ccc3N)s2)nn1,48%
18,Nc1ccc(-c2cccs2)cc1NC(=O)c1cccc(-c2cn(CCC3CCCCC3)nn2)c1,0%
19,Cc1cccc(C)c1NC(=O)Cn1cc(-c2ccc(C(=O)Nc3cc(-c4cccs4)ccc3N)cc2)nn1,52%
20,Nc1ccc(-c2ccsc2)cc1NC(=O)CCc1cn(CCCCCCCC(=O)O)nn1,1%
21,Nc1ccc(-c2cccs2)cc1NC(=O)c1ccc(-c2cn(-c3cccc4ccccc34)nn2)s1,0%
22,Nc1ccc(-c2ccsc2)cc1NC(=O)c1cn(CCCCCCCC(=O)O)nn1,10%
23,Cc1ccccc1CCn1cc(-c2cccc(C(=O)Nc3cc(-c4cccs4)ccc3N)c2)nn1,0%

# Next, values leading:
row,inhibition,SMILES
1,0%,Nc1ccc(-c2cccs2)cc1NC(=O)c1cccc(-c2cn(CCc3cccc(F)c3)nn2)c1
2,16%,Nc1ccc(-c2ccsc2)cc1NC(=O)CCc1cn(Cc2ccc3ccccc3c2)nn1
3,17%,Nc1ccc(-c2ccc(F)cc2)cc1NC(=O)CCc1cn(CCc2ccc(F)cc2)nn1
4,8%,Nc1ccc(-c2ccc(F)cc2)cc1NC(=O)c1cn(Cc2cccc3ccccc23)nn1
5,9%,Nc1ccc(-c2cccs2)cc1NC(=O)c1cn(CCc2ccccc2)nn1
6,0%,Nc1ccc(-c2ccc(F)cc2)cc1NC(=O)CCc1cn(CCCCC(=O)O)nn1
7,3%,Nc1ccc(-c2ccsc2)cc1NC(=O)c1cn(Cc2ccc3ccccc3c2)nn1
8,19%,COc1ccc(Cn2cc(C(=O)Nc3cc(-c4ccc(F)cc4)ccc3N)nn2)cc1
9,0%,Nc1ccc(-c2cccs2)cc1NC(=O)c1cccc(-c2cn(CCc3ccc(F)cc3)nn2)c1
10,0%,Nc1ccc(-c2ccccc2)cc1NC(=O)c1cn(CC2CCCCC2)nn1
11,0%,Nc1ccc(-c2ccsc2)cc1NC(=O)c1cn(CCc2cccc3ccccc23)nn1
12,2%,Cc1ccc(CCn2cc(C(=O)Nc3cc(-c4ccccc4)ccc3N)nn2)cc1
13,18%,Nc1ccc(-c2ccccc2)cc1NC(=O)CCc1cn(Cc2ccc3ccccc3n2)nn1
14,21%,COc1ccc(CCn2cc(CCC(=O)Nc3cc(-c4cccnc4)ccc3N)nn2)cc1
15,29%,Nc1ccc(-c2ccc(F)cc2)cc1NC(=O)c1cn(CCCCCCCC(=O)O)nn1
16,20%,Nc1ccc(-c2ccc(F)cc2)cc1NC(=O)CCc1cn(CCc2ccc([N+](=O)[O-])cc2)nn1
17,29%,COc1ccc(CCn2cc(CCC(=O)Nc3cc(-c4ccsc4)ccc3N)nn2)cc1
18,7%,Cc1ccc(CCn2cc(C(=O)Nc3cc(-c4ccc(F)cc4)ccc3N)nn2)cc1
19,18%,Nc1ccc(-c2cccs2)cc1NC(=O)c1ccc(-c2cn(CCc3ccc(F)cc3)nn2)s1
20,10%,COc1ccccc1CCn1cc(CCC(=O)Nc2cc(-c3ccc(F)cc3)ccc2N)nn1
21,32%,Nc1ccc(-c2ccc(F)cc2)cc1NC(=O)CCc1cn(Cc2nc3ccccc3[nH]2)nn1
22,0%,Nc1ccc(-c2ccccc2)cc1NC(=O)c1cn(CCc2ccccc2Cl)nn1
23,0%,Nc1ccc(-c2cccs2)cc1NC(=O)c1cccc(-c2cn(Cc3ccc(-c4ccccc4)cc3)nn2)c1
24,0%,Nc1ccc(-c2cccs2)cc1NC(=O)c1ccc(-c2cn(Cc3ccc(Oc4ccccc4)cc3)nn2)s1

row,inhibition,SMILES
1,19%,Nc1ccc(-c2ccc(F)cc2)cc1NC(=O)CCc1cn(CC(=O)c2ccccc2)nn1
2,34%,COc1ccc(CCn2cc(CCC(=O)Nc3cc(-c4ccc(F)cc4)ccc3N)nn2)cc1
3,0%,COc1ccc(CCn2cc(C(=O)Nc3cc(-c4ccccc4)ccc3N)nn2)cc1
4,0%,Nc1ccc(-c2ccc(F)cc2)cc1NC(=O)CCc1cn(-c2ccc(Br)cc2)nn1
5,3%,Nc1ccc(-c2ccc(F)cc2)cc1NC(=O)CCc1cn(CCc2ccc(Cl)cc2)nn1
6,0%,Nc1ccc(-c2cccs2)cc1NC(=O)c1cn(-c2ccc(I)cc2)nn1
7,5%,COc1ccc(-n2cc(-c3ccc(C(=O)Nc4cc(-c5cccs5)ccc4N)s3)nn2)cc1
8,22%,COc1ccc(-n2cc(C(=O)Nc3cc(-c4ccsc4)ccc3N)nn2)cc1
9,0%,Nc1ccc(-c2ccc(F)cc2)cc1NC(=O)CCc1cn(Cc2ccc(-c3ccccc3)cc2)nn1
10,0%,Nc1ccc(-c2ccccc2)cc1NC(=O)c1cn(CCc2cccc(C(F)(F)F)c2)nn1
11,0%,Nc1ccc(-c2ccsc2)cc1NC(=O)c1cn(CCc2ccccc2Cl)nn1
12,0%,Nc1ccc(-c2ccc(F)cc2)cc1NC(=O)c1cn(CC23CC4CC(CC(C4)C2)C3)nn1
13,8%,Nc1ccc(-c2cccs2)cc1NC(=O)c1cn(Cc2cc3ccccc3s2)nn1
14,8%,Nc1ccc(-c2cccs2)cc1NC(=O)c1cn(C[S+]([O-])c2ccccc2)nn1 (stereo not given)
15,0%,Nc1ccc(-c2ccsc2)cc1NC(=O)c1cn(-c2ccc(I)cc2)nn1
16,7%,Nc1ccc(-c2cccnc2)cc1NC(=O)CCc1cn(CCc2ccc(Cl)cc2)nn1
17,0%,COc1ccccc1CCn1cc(C(=O)Nc2cc(-c3ccccc3)ccc2N)nn1
18,0%,Nc1ccc(-c2ccsc2)cc1NC(=O)c1cn(Cc2cc3ccccc3s2)nn1
19,1%,Nc1ccc(-c2ccc(F)cc2)cc1NC(=O)CCc1cn(CC2CCCCC2)nn1
20,0%,Nc1ccc(-c2ccsc2)cc1NC(=O)c1cn(CC(=O)c2ccccc2)nn1
21,7%,Nc1ccc(-c2cccnc2)cc1NC(=O)CCc1cn(Cc2ccc(C(=O)O)cc2)nn1
22,0%,Nc1ccc(-c2cccs2)cc1NC(=O)c1cn(-c2ccc([N+](=O)[O-])cc2)nn1
23,0%,Nc1ccc(-c2ccccc2)cc1NC(=O)c1cn(CCc2c[nH]c3ccccc23)nn1
24,11%,Nc1ccc(-c2cccs2)cc1NC(=O)CCc1cn(CCc2ccc(F)cc2)nn1
